Laboratory results published in US9085587B2, “Inhibitors of hepatitis C virus” (priority 2010, dated 2015).
Where two headings read alike, the source gives them in different places.

System: HCV 1b replication (bicistronic genotype 1b replicon in Huh 7 cells)
Test: HCV 1b replicon assay (1b_Huh-Luc/Neo-ET cell line, luciferase readout)
Type: cell-based
Settings: Hepatitis C virus
Method: Biological activity of the compounds of the invention was determined using an HCV replicon assay. The 1b_Huh-Luc/Neo-ET cell line persistently expressing a bicistronic genotype 1b replicon in Huh 7 cells was obtained from ReBLikon GMBH. This cell line was used to test compound inhibition using luciferase enzyme activity readout as a measurement of compound inhibition of replicon levels.
On Day 1 (the day after plating), each compound was added in triplicate to the cells. Plates were incubated for 72 hours prior to running the luciferase assay. Enzyme activity was measured using a Bright-Glo Kit (cat. number E2620) manufactured by Promega Corporation. The following equation was used to generate a percent control value for each compound. % Control=(Average Compound Value/Average Control)*100
The EC50 value was determined using GraphPad Prism and the following equation: Y=Bottom+(Top-Bottom)/(1+10^((Log IC50−X)*HillSlope))
EC50 values of compounds were repeated several times in the replicon assay.

[1] = Huh-7, 1b_Huh-Luc/Neo-ET cell line, 72 hours, luciferase readout, read-out: EC50, concentration effective to produce a half-maximal inhibition of HCV 1b replication
[2] = Huh-7, class symbols, genotype 1b replicon, read-out: Inhibition of HCV genotype 1b replicon
[3] = Huh-7, numeric EC50, genotype 1b replicon, read-out: Inhibition of HCV genotype 1b replicon (EC50)

Structure (SMILES) | EC50 (Huh-7, read-out: Inhibition of HCV genotype 1b replicon) | EC50 [1] | EC50 [2] | EC50 [3]
CNC(=O)c1c(-c2ccc(F)cc2)oc2cc3c(cc12)[C@H](C)O[C@H](COC(=O)C1CCNCC1)CN3S(C)(=O)=O [Compound 8265] | < 10 nM | ≤ 10 nM |  | 
C=C1CCCN(S(C)(=O)=O)c2cc3oc(-c4ccc(F)cc4)c(C(=O)NC)c3cc21 [Compound B4] |  | 10 to 100 nM | 10 to 100 nM | 
CNC(=O)c1c(-c2ccc(F)cc2)oc2cc3c(cc12)C(C)=CCCN3S(C)(=O)=O [Compound B6] |  | 10 to 100 nM | 10 to 100 nM | 
CNC(=O)c1c(-c2ccc(F)cc2)oc2cc3c(cc12)C(=O)CCCN3S(C)(=O)=O [Compound B7] |  | 10 to 100 nM | 10 to 100 nM | 
CNC(=O)c1c(-c2ccc(F)cc2)oc2cc3c(cc12)C(O)CCCN3S(C)(=O)=O (centres unmarked) [Compound B8] |  |  |  | 106 nM
CNC(=O)c1c(-c2ccc(F)cc2)oc2cc3c(cc12)C1(CCCN3S(C)(=O)=O)CC1 [Compound B9] |  | 10 to 100 nM | 10 to 100 nM | 
CNC(=O)c1c(-c2ccc(F)cc2)oc2cc3c(cc12)[C@@H](C)CCCN3S(C)(=O)=O [Compound B16] |  | 10 to 100 nM |  | 45.7 nM
CONC(=O)c1c(-c2ccc(F)cc2)oc2cc3c(cc12)CCCCN3S(C)(=O)=O [Compound B18] |  | 10 to 100 nM | 10 to 100 nM | 
CNC(=O)c1c(-c2ccc(F)cc2)oc2cc3c(cc12)CCN3S(C)(=O)=O [Compound B21] |  |  | 100 to 1000 nM | 
C=C1CCCN(S(C)(=O)=O)c2cc3oc(-c4ccc(F)cc4F)c(C(=O)NC)c3cc21 [Compound B29] |  | 10 to 100 nM |  | 56.1 nM
C=C1CCCN(S(C)(=O)=O)c2cc3oc(-c4ccccc4F)c(C(=O)NC)c3cc21 [Compound B31] |  | 10 to 100 nM | 10 to 100 nM | 
CNC(=O)c1c(-c2ccccc2F)oc2cc3c(cc12)C(C)=CCCN3S(C)(=O)=O [Compound B32] |  | 10 to 100 nM | 10 to 100 nM | 
CNC(=O)c1c(-c2ccccc2F)oc2cc3c(cc12)C(C)CCCN3S(C)(=O)=O (centres unmarked) [Compound B33] |  | ≤ 10 nM | < 10 nM | 
CNC(=O)c1c(-c2ccc(F)cc2F)oc2cc3c(cc12)C(C)=CCCN3S(C)(=O)=O [Compound B34] |  | 10 to 100 nM | 10 to 100 nM | 
CNC(=O)c1c(-c2ccc(F)cc2F)oc2cc3c(cc12)C(C)CCCN3S(C)(=O)=O (centres unmarked) [Compound B35] |  | ≤ 10 nM | < 10 nM | 
CNC(=O)c1c(-c2ccc(F)cc2F)oc2cc3c(cc12)C(CO)CCCN3S(C)(=O)=O (centres unmarked) [Compound B36] |  | 10 to 100 nM | 10 to 100 nM | 
CNC(=O)c1c(-c2ccc(Oc3ccc(F)cc3)cc2)oc2cc3c(cc12)[C@H](C)O[C@H](COC)CN3S(C)(=O)=O [Compound B243] |  | ≤ 10 nM | < 10 nM | 
CNC(=O)c1c(-c2ccc(Oc3ccc(F)cc3)cc2)oc2cc3c(cc12)[C@H](C)O[C@H](COC(=O)C(C)(C)C)CN3S(C)(=O)=O [Compound B244] |  | ≤ 10 nM | < 10 nM | 
CNC(=O)c1c(-c2ccc(Oc3ccc(F)cc3)cc2)oc2cc3c(cc12)[C@H](C)O[C@H](COC(=O)CCC(=O)O)CN3S(C)(=O)=O [Compound B245] |  | ≤ 10 nM | < 10 nM | 
CNC(=O)c1c(-c2ccc(Oc3ccc(F)cc3)cc2)oc2cc3c(cc12)[C@H](C)O[C@H](COC(=O)c1cccnc1)CN3S(C)(=O)=O [Compound B246] |  | ≤ 10 nM | < 10 nM | 
CNC(=O)c1c(-c2ccc(F)cc2)nn2cc3c(cc12)C(C)OC(CS(C)(=O)=O)CN3S(C)(=O)=O (centres unmarked) [Compound B247] |  | ≤ 10 nM | 10 to 100 nM | 
CNC(=O)c1c(-c2ccc(F)cc2)oc2cc3c(cc12)[C@H](C)O[C@H](COC(=O)[C@@H](N)C(C)C)CN3S(C)(=O)=O [Compound B248] |  | ≤ 10 nM | < 10 nM | 
CNC(=O)c1c(-c2ccc(F)cc2)oc2cc3c(cc12)[C@H](C)O[C@H](COC(=O)[C@H](C)N)CN3S(C)(=O)=O [Compound B249] |  | ≤ 10 nM | < 10 nM | 
CNC(=O)c1c(-c2ccc(Oc3ccc(F)cc3)cc2)nn2cc3c(cc12)C(C)OC(CO)CN3S(C)(=O)=O (centres unmarked) [Compound B250] |  |  | 10 to 100 nM | 
CNC(=O)c1c(-c2ccc(Oc3ccc(F)cc3)cc2)nn2cc3c(cc12)C(C)OC(CS(C)(=O)=O)CN3S(C)(=O)=O (centres unmarked) [Compound B251] |  |  | 10 to 100 nM | 

Structure (SMILES) | EC50 (Huh-7, read-out: Inhibition of HCV genotype 1b replicon) | EC50 [1] | EC50 [2] | EC50 [3]
CNC(=O)c1c(-c2ccc(F)cc2)oc2cc3c(cc12)[C@H](C)O[C@H](COC(=O)CN(C)C)CN3S(C)(=O)=O [Compound B252] |  | ≤ 10 nM | < 10 nM | 
CNC(=O)c1c(-c2ccc(F)cc2)oc2cc3c(cc12)[C@H](C)O[C@H](COC(=O)CN)CN3S(C)(=O)=O [Compound B253] |  | ≤ 10 nM | < 10 nM | 
CNC(=O)c1c(-c2ccc(Oc3ccc(F)cc3)cc2)oc2cc3c(cc12)[C@H](C)O[C@H](COC(=O)CN)CN3S(C)(=O)=O [Compound B254] |  | ≤ 10 nM | < 10 nM | 
CNC(=O)c1c(-c2ccc(F)cc2)oc2cc3c(cc12)[C@H](C)O[C@H](COP(=O)(O)O)CN3S(C)(=O)=O [Compound B255] |  | ≤ 10 nM | < 10 nM | 
CNC(=O)c1c(-c2ccc(F)cc2)oc2cc3c(cc12)[C@H](C)O[C@H](COC(=O)COCCOCCOC)CN3S(C)(=O)=O [Compound B256] |  | ≤ 10 nM | < 10 nM | 
CONC(=O)c1c(-c2ccc(F)cc2)oc2cc3c(cc12)[C@H](C)O[C@H](CO)CN3S(C)(=O)=O [Compound B257] |  | ≤ 10 nM | < 10 nM | 
CNC(=O)c1c(-c2ccc(F)cc2)oc2cc3c(cc12)[C@H](C)O[C@H](COC(=O)COCCOCCOCCOC)CN3S(C)(=O)=O [Compound B258] |  | ≤ 10 nM | < 10 nM | 
CNC(=O)c1c(-c2ccc(F)cc2)oc2cc3c(cc12)[C@H](C)O[C@H](COC(=O)COCCOCCOCCOCCOC)CN3S(C)(=O)=O [Compound B259] |  | ≤ 10 nM | < 10 nM | 
CNC(=O)c1c(-c2ccc(F)cc2)oc2cc3c(cc12)[C@H](C)O[C@H](COC)CN3S(C)(=O)=O [Compound B260] |  | ≤ 10 nM | < 10 nM | 
CNC(=O)c1c(-c2ccc(F)cc2)oc2cc3c(cc12)[C@H](C)O[C@H](COC(=O)C(C)(C)C)CN3S(C)(=O)=O [Compound B261] |  | ≤ 10 nM | < 10 nM | 
CNC(=O)c1c(-c2ccc(F)cc2)oc2cc3c(cc12)[C@H](C)O[C@H](COC(=O)CCC(=O)O)CN3S(C)(=O)=O [Compound B262] |  | 10 to 100 nM | 10 to 100 nM | 
CNC(=O)c1c(-c2ccc(F)cc2)oc2cc3c(cc12)[C@H](C)O[C@H](COC(=O)c1cccnc1)CN3S(C)(=O)=O [Compound B263] |  | ≤ 10 nM | < 10 nM | 
CNC(=O)c1c(-c2ccc(F)cc2)oc2cc3c(cc12)[C@H](C)O[C@H](COC(=O)CC1CCNCC1)CN3S(C)(=O)=O [Compound B264] |  | 10 to 100 nM | 10 to 100 nM | 
CNC(=O)c1c(-c2ccc(F)cc2)oc2cc3c(cc12)[C@H](C)O[C@H](COC(=O)[C@@H]1CCCN1)CN3S(C)(=O)=O [Compound B266] |  | ≤ 10 nM | < 10 nM | 
CNC(=O)c1c(-c2ccc(F)cc2)oc2cc3c(cc12)[C@H](C)O[C@H](COCCOC)CN3S(C)(=O)=O [Compound B267] |  | ≤ 10 nM | < 10 nM | 
CNC(=O)c1c(-c2ccc(F)cc2)oc2cc3c(cc12)[C@H](C)O[C@H](COCCOCCOC)CN3S(C)(=O)=O [Compound B268] |  | ≤ 10 nM | < 10 nM | 
CC[C@H](C)[C@H](N)C(=O)OC[C@@H]1CN(S(C)(=O)=O)c2cc3oc(-c4ccc(F)cc4)c(C(=O)NC)c3cc2[C@H](C)O1 [Compound B269] |  | ≤ 10 nM | < 10 nM | 
CNC(=O)c1c(-c2ccc(F)cc2)oc2cc3c(cc12)[C@H](C)O[C@H](COC(=O)[C@@H](N)[C@@H](C)OC)CN3S(C)(=O)=O [Compound B270] |  | ≤ 10 nM | < 10 nM | 
CNC(=O)c1c(-c2ccc(F)cc2)oc2cc3c(cc12)[C@H](C)O[C@H](COC(=O)[C@@H](N)CC(C)C)CN3S(C)(=O)=O [Compound B271] |  | ≤ 10 nM | < 10 nM | 
CNC(=O)c1c(-c2ccc(F)cc2)oc2cc3c(cc12)[C@H](C)O[C@H](COC(=O)[C@@H](N)c1ccccc1)CN3S(C)(=O)=O [Compound B272] |  | ≤ 10 nM | < 10 nM | 
CNC(=O)c1c(-c2ccc(F)cc2)oc2cc3c(cc12)[C@H](C)O[C@H](COC(=O)[C@@H](C)N)CN3S(C)(=O)=O [Compound B273] |  | ≤ 10 nM | < 10 nM | 
CNC(=O)c1c(-c2ccc(F)cc2)oc2cc3c(cc12)[C@H](C)O[C@@H](CO)CN3S(C)(=O)=O [Compound B274] |  |  | 10 to 100 nM | 
CNC(=O)c1c(-c2ccc(F)cc2)oc2cc3c(cc12)[C@H](C)O[C@H](COC[C@H]1COC(C)(C)O1)CN3S(C)(=O)=O [Compound B275] |  | ≤ 10 nM | < 10 nM | 
CNC(=O)c1c(-c2ccc(F)cc2)oc2cc3c(cc12)[C@H](C)O[C@H](COC(=O)N1CCC(N2CCCCC2)CC1)CN3S(C)(=O)=O [Compound B276] |  | ≤ 10 nM | < 10 nM | 
CNC(=O)c1c(-c2ccc(F)cc2)oc2cc3c(cc12)[C@H](C)O[C@H](COC(=O)[C@@H](N)Cc1cnc[nH]1)CN3S(C)(=O)=O [Compound B277] |  | ≤ 10 nM | < 10 nM | 
